Source: patent publication US11767322B2 (BRISTOL-MYERS SQUIBB COMPANY, priority 2020, dated 2023)
pIC50: −log10 of the molar value. Like-named read-outs stand apart in the source and are kept apart here. Blank lines part the entries; values can stand above or below the compound they belong to.

Experiments:
[1] = molecular target: T1, His-GST-TVMV-hRIPK1(1-324) (Homo sapiens, UniProt Q13546); assay: biochemical; format: binding; conditions: read-out: RIPK1 IC50
T1 construct: The coding region of human RIPK1(1-324) flanked by NdeI site at 5′ end; made in house; host or cells: Spodoptera frugiperda Sf9 insect cells (baculovirus, Bac-to-Bac)
T1 sequence (Q13546 1-324): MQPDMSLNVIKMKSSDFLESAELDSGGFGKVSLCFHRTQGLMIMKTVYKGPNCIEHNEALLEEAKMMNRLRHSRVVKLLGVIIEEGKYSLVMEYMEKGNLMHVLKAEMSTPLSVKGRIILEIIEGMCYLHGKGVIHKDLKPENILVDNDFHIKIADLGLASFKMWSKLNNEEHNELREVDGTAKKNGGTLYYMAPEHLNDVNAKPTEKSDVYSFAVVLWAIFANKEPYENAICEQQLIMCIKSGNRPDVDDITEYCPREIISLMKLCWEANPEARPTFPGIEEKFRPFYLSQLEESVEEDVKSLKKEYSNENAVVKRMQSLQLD

[2] = system: MLKL phosphorylation in HT29-L23 human colorectal adenocarcinoma cells; assay: MLKL phosphorylation high-content assay; format: cell-based
[3] = HTRF probe displacement, 1 h at rt
[4] = Homo sapiens, 6 h, read-out: pMLKL IC50, HT29-L23 cells, necroptosis induced with TNFα, SMAC mimetic and Z-VAD, 6 h, maximal inhibition defined by Nec1s
[5] = read-out: pMLKL IC50, HT29-L23 cells, necroptosis induced with TNFα, SMAC mimetic and Z-VAD, 6 h, maximal inhibition defined by Nec1s

SMILES: Cc1ccc(-c2ccn3nc(N)nc3c2)c(F)c1C(=O)NCCC(C)(F)c1ccc(Cl)cc1 (centres unmarked) [Example 228, 3-(2-amino-[1,2,4]triazolo[1,5-a]pyridin-7-yl)-N-(3-(4-chlorophenyl)-3-fluorobutyl)-2-fluoro-6-methylbenzamide]
- pIC50 [1, 3]: 9.05
- pIC50 [2, 4]: 9.00

SMILES: Nc1nc2cc(-c3ccc(Cl)c(C(=O)NCC(F)(F)C(O)c4cccc(F)c4)c3F)ccn2n1 (single isomer, unassigned) [Example 168, 3-{2-amino-[1,2,4]triazolo[1,5-a]pyridin-7-yl}-6-chloro-N-[2,2-difluoro-3-(3-fluorophenyl)-3-hydroxypropyl]-2-fluorobenzamide]
- pIC50 [1, 3]: 9.52
- pIC50 [2, 5]: 8.96

SMILES: [2H]C([2H])([2H])c1ccc(-c2ccn3nc(N)nc3c2)c(F)c1C(=O)NCC(F)(F)C(O)c1ccc(F)cc1 (centres unmarked) [Example 123, 3-(2-amino-[1,2,4]triazolo[1,5-a]pyridin-7-yl)-N-(2,2-difluoro-3-(4-fluorophenyl)-3-hydroxypropyl)-2-fluoro-6-(methyl-d3)benzamide]
- pIC50 [1, 3]: 8.24
- pIC50 [2, 4]: 9.10

SMILES: COC(=O)c1ccc(CCCNC(=O)c2c(Cl)ccc(-c3ccn4nc(N)nc4c3)c2F)cc1 [Example 273, methyl 4-(3-(3-(2-amino-[1,2,4]triazolo[1,5-a]pyridin-7-yl)-6-chloro-2-fluorobenzamido)propyl)benzoate]
- pIC50 [1, 3]: 8.41
- pIC50 [2, 4]: 7.43

SMILES: [2H]C(O)(c1ccc(C(F)F)cc1)C(F)(F)CNC(=O)c1c(Cl)ccc(-c2ccn3nc(N)nc3c2)c1F (single isomer, unassigned) [Example 311, 3-(2-amino-[1,2,4]triazolo[1,5-a]pyridin-7-yl)-6-chloro-N-(3-(4-(difluoromethyl)phenyl)-2,2-difluoro-3-hydroxypropyl-3-d)-2-fluorobenzamide]
- pIC50 [1, 3]: 8.30
- pIC50 [2, 4]: 9.10

SMILES: Cc1ccc(-c2ccn3nc(N)nc3c2)c(F)c1C(=O)NCC(F)(F)[C@@H](O)c1ccc(F)cc1 (single isomer, unassigned) [Example 30]
- pIC50 [1, 3]: 8.35
- pIC50 [2, 4]: 9.30

SMILES: [2H]C([2H])([2H])c1ccc(-c2ccn3nc(N)nc3c2)c(F)c1C(=O)NCC(F)(F)C(C)(O)c1ccc(F)cc1 (single isomer, unassigned) [Example 241, 3-(2-amino-[1,2,4]triazolo[1,5-a]pyridin-7-yl)-N-(2,2-difluoro-3-(4-fluorophenyl)-3-hydroxybutyl)-2-fluoro-6-(methyl-d3)benzamide]
- pIC50 [1, 3]: 8.00
- pIC50 [2, 4]: 8.92

SMILES: Cc1ccc(C(O)C(F)(F)CNC(=O)c2c(Cl)ccc(-c3ccn4nc(N)nc4c3)c2F)c(F)c1 (centres unmarked) [Example 183, 3-(2-amino-[1,2,4]triazolo[1,5-a]pyridin-7-yl)-6-chloro-N-(2,2-difluoro-3-(2-fluoro-4-methylphenyl)-3-hydroxypropyl)-2-fluorobenzamide]
- pIC50 [1, 3]: 9.40
- pIC50 [2, 5]: 9.00

SMILES: Nc1nc2cc(-c3ccc(Cl)c(C(=O)NCC(F)(F)C(O)c4cc(Cl)ccc4F)c3F)ccn2n1 (centres unmarked) [Example 180, 3-(2-amino-[1,2,4]triazolo[1,5-a]pyridin-7-yl)-6-chloro-N-(3-(5-chloro-2-fluorophenyl)-2,2-difluoro-3-hydroxypropyl)-2-fluorobenzamide]
- pIC50 [1, 3]: 8.70
- pIC50 [2, 5]: 8.00

- pIC50 ([1]; Table 23, representative compounds from WO2018/148626): 7.32
- pIC50 ([2]; Homo sapiens, Table 23, representative compounds from WO2018/148626, read-out: pMLKL IC50): 6.69
SMILES: Cc1nc(C)c(-c2ccn3nc(N)nc3c2)cc1C(=O)NCC(O)Cc1ccccc1 (centres unmarked) [Example 174]

SMILES: Cc1ccc(-c2ccn3nc(N)nc3c2)c(F)c1C(=O)NCC(F)(F)C(C)(O)c1ccc(C(F)(F)F)cc1 (centres unmarked) [Example 227, 3-(2-amino-[1,2,4]triazolo[1,5-a]pyridin-7-yl)-N-(2,2-difluoro-3-hydroxy-3-(4-(trifluoromethyl)phenyl)butyl)-2-fluoro-6-methylbenzamide]
- pIC50 [1, 3]: 7.82
- pIC50 [2, 4]: 9.15

SMILES: Nc1nc2cc(-c3ccc(Cl)c(C(=O)NCC(F)(F)C(O)c4cccc(F)c4F)c3F)ccn2n1 (single isomer, unassigned) [Example 167, 3-(2-amino-[1,2,4]triazolo[1,5-a]pyridin-7-yl)-6-chloro-N-(3-(2,3-difluorophenyl)-2,2-difluoro-3-hydroxypropyl)-2-fluorobenzamide]
- pIC50 [1, 3]: 7.82
- pIC50 [2, 5]: 8.11

SMILES: Cc1cc(F)c(-c2ccn3nc(N)nc3c2)cc1C(=O)NCCC(O)c1ccc(Cl)cn1 (centres unmarked) [Example 5, 5-(2-amino-[1,2,4]triazolo[1,5-a]pyridin-7-yl)-N-(3-(5-chloropyridin-2-yl)-3-hydroxypropyl)-4-fluoro-2-methylbenzamide]
- pIC50 [1, 3]: 8.19
- pIC50 [2, 4]: 8.59

SMILES: Cc1ccc(-c2ccn3nc(N)nc3c2)c(F)c1C(=O)NCCC(O)c1cccc(Cl)c1 (single isomer, unassigned) [Example 45, 3-(2-amino-[1,2,4]triazolo[1,5-a]pyridin-7-yl)-N-(3-(3-chlorophenyl)-3-hydroxypropyl)-2-fluoro-6-methylbenzamide]
- pIC50 [1, 3]: 8.52
- pIC50 [2, 5]: 8.13

SMILES: [2H]C([2H])([2H])c1ccc(-c2ccn3nc(N)nc3c2)c(F)c1C(=O)NC[C@H](F)[C@](C)(O)c1ccc(F)cc1 [Example 215, 3-(2-amino-[1,2,4]triazolo[1,5-a]pyridin-7-yl)-2-fluoro-N-((1S,3R)-2-fluoro-3-(4-fluorophenyl)-3-hydroxybutyl)-6-(methyl-d3)benzamide]
- pIC50 [1, 3]: 8.06
- pIC50 [2, 4]: 8.18

SMILES: Nc1nc2cc(-c3ccc(Cl)c(C(=O)NCC(F)(F)C(O)c4cccc(Cl)c4F)c3F)ccn2n1 (single isomer, unassigned) [Example 170, 3-(2-amino-[1,2,4]triazolo[1,5-a]pyridin-7-yl)-6-chloro-N-(3-(3-chloro-2-fluorophenyl)-2,2-difluoro-3-hydroxypropyl)-2-fluorobenzamide]
- pIC50 [1, 3]: 10.00
- pIC50 [2, 5]: 8.85

SMILES: Cc1ccc(-c2ccn3nc(N)nc3c2)c(F)c1C(=O)NCC(F)(F)C1(c2ccc(F)cc2)COC1 [Example 246, 3-(2-amino-[1,2,4]triazolo[1,5-a]pyridin-7-yl)-N-(2,2-difluoro-2-(3-(4-fluorophenyl)oxetan-3-yl)ethyl)-2-fluoro-6-methylbenzamide]
- pIC50 [1, 3]: 7.82
- pIC50 [2, 4]: 8.66

SMILES: Nc1nc2cc(-c3ccc(Cl)c(C(=O)NCCC(O)c4ccc(C(F)(F)F)cc4)c3F)ccn2n1 (single isomer, unassigned) [Example 86, 3-(2-amino-[1,2,4]triazolo[1,5-a]pyridin-7-yl)-6-chloro-2-fluoro-N-(3-hydroxy-3-(4-(trifluoromethyl)phenyl)propyl)benzamide]
- pIC50 [1, 3]: 8.66
- pIC50 [2, 5]: 8.12

SMILES: Nc1nc2cc(-c3ccc(Cl)c(C(=O)NCC(F)(F)C(O)c4ccc(C(F)(F)F)cc4F)c3F)ccn2n1 (centres unmarked) [Example 164, 3-(2-amino-[1,2,4]triazolo[1,5-a]pyridin-7-yl)-6-chloro-N-(2,2-difluoro-3-(2-fluoro-4-(trifluoromethyl)phenyl)-3-hydroxypropyl)-2-fluorobenzamide]
- pIC50 [1, 3]: 8.55
- pIC50 [2, 4]: 8.54

SMILES: Cc1ccc(-c2ccn3nc(N)nc3c2C)c(F)c1C(=O)NCC[C@H](O)c1ccc(Cl)cc1 [compound 134]
- pIC50 [1, 3]: 8.54
- pIC50 [2, 4]: 8.82

SMILES: Nc1nc2cc(-c3ccc(Cl)c(C(=O)NCC(F)(F)C(O)c4ccc(F)cc4F)c3F)ccn2n1 (single isomer, unassigned) [Example 179, 3-(2-amino-[1,2,4]triazolo[1,5-a]pyridin-7-yl)-6-chloro-N-(3-(2,4-difluorophenyl)-2,2-difluoro-3-hydroxypropyl)-2-fluorobenzamide]
- pIC50 [1, 3]: 9.52
- pIC50 [2, 5]: 8.43

SMILES: [2H]C([2H])([2H])c1ccc(-c2ccn3nc(N)nc3c2)c(F)c1C(=O)NCC(F)(F)C(C)(O)c1ccc(Cl)cc1 (single isomer, unassigned) [Example 253, 3-(2-amino-[1,2,4]triazolo[1,5-a]pyridin-7-yl)-N-(3-(4-chlorophenyl)-2,2-difluoro-3-hydroxybutyl)-2-fluoro-6-(methyl-d3)benzamide]
- pIC50 [1, 3]: 8.62
- pIC50 [2, 5]: 8.92

SMILES: Nc1nc2cc(-c3ccc(Cl)c(C(=O)NCC(F)(F)Cc4ccc(F)cc4)c3F)ccn2n1 [Example 207, 3-(2-amino-[1,2,4]triazolo[1,5-a]pyridin-7-yl)-6-chloro-N-(2,2-difluoro-3-(4-fluorophenyl)propyl)-2-fluorobenzamide]
- pIC50 [1, 3]: 8.74
- pIC50 [2, 4]: 9.22

SMILES: Nc1nc2cc(-c3ccc(Cl)c(C(=O)NCC(F)C(O)c4ccc(Cl)cc4)c3F)ccn2n1 (centres unmarked) [Example 129, 3-(2-amino-[1,2,4]triazolo[1,5-a]pyridin-7-yl)-6-chloro-N-(3-(4-chlorophenyl)-2-fluoro-3-hydroxypropyl)-2-fluorobenzamide]
- pIC50 [1, 3]: 8.46
- pIC50 [2, 5]: 8.77

SMILES: Cc1ccc(-c2ccn3nc(N)nc3c2)c(F)c1C(=O)NCC(F)(F)C(O)c1ccnc(C(F)(F)F)c1 (single isomer, unassigned) [Example 260, 3-(2-amino-[1,2,4]triazolo[1,5-a]pyridin-7-yl)-N-(2,2-difluoro-3-hydroxy-3-(2-(trifluoromethyl)pyridin-4-yl)propyl)-2-fluoro-6-methylbenzamide]
- pIC50 [1, 3]: 8.08
- pIC50 [2, 5]: 8.49
